Key:
[1] = Inhibitory activity against Opioid receptor kappa1 binding to bovine striatal membrane
[2] = Inhibitory activity against Opioid receptor delta 1 binding to bovine striatal membrane

## C[C@@]12Oc3c(O)ccc4c3[C@@]13CCN(CC1CC1)[C@H](C4)[C@]3(NC(=O)CSSCC(=O)N[C@@]13CCC(=O)[C@]4(C)Oc5c(O)ccc6c5[C@@]41CCN(CC1CC1)[C@@H]3C6)CCC2=O
[1]
  IC50: 7.7 nM
[2]
  IC50: 5.3 nM

## CN1CC[C@]23c4c5ccc(O)c4O[C@@]2(C)C(=O)CC[C@@]3(NC(=O)CSSCC(=O)N[C@@]23CCC(=O)[C@]4(C)Oc6c(O)ccc7c6[C@@]42CCN(C)C3C7)C1C5 [MET-TAMO and N-CPM-MET-TAMO analogue]
[1]
  IC50: 89 nM
[2]
  IC50: 52 nM

Reference: BindingDB's records for doi:10.1016/0960-894X(95)00287-4 (1995)
